{"source": "patent US20080248134A1", "about": "“Oral compositions, use and combinations of N-[2-(dimethylamino)ethyl]-2,6 dimethyl-1-oxo-1,2-dihydrobenzo[b]-1,6-naphthyridine-4-carboxamide and closely related analogues thereof” (Auckland Uniservices Limited, priority 2005, published 2008)", "key": {"[1]": {"system": "survivin in HCT116 (TP53 wild type)", "assay": "Inhibition of survivin production, western blotting", "type": "cell-based, human", "settings": "various concentrations, 24 hours", "experimental": "Survivin is a protein that is expressed selectively in many types of cancer cells and which is known to be associated with resistance to apoptosis (Zaffaroni N and Daidone M G. Survivin expression and resistance to anticancer treatments: perspectives for new therapeutic interventions. Drug Resistance Updates: Reviews and Commentaries in Antimicrobial and Anticancer Chemotherapy. 2002 5(2):65-72). […] Extracts were prepared, proteins were separated by electrophoresis and survivin expression was determined by western blotting."}, "AuxB1": {"system": "AuxB1", "assay": "In vitro susceptibility to multidrug resistance, continuous exposure IC50", "type": "cell-based, Chinese Hamster", "settings": "Cricetulus griseus, AuxB1 (no multidrug resistance)", "experimental": "(§1) Multidrug resistance mediated by p-glycoprotein and related transport proteins is an important means by which cancer cells evade cytotoxic drugs. […] IC50 values of several drugs were measured in continuous exposure assays in these two cell lines. The resistance factor was calculated as the ratio of these values. High values indicate high susceptibility to resistance."}, "CHrC5": {"system": "CHrC5", "assay": "In vitro susceptibility to multidrug resistance, continuous exposure IC50", "type": "cell-based, Chinese Hamster", "settings": "for IC50: Cricetulus griseus, CHrC5 (multidrug resistant), continuous exposure; for Resistance factor: ratio of IC50 values in CHrC5 and AuxB1", "experimental": "as §1"}, "NZMp2": {"system": "NZMp2", "assay": "Human tumour xenograft", "type": "in vivo", "settings": "NZMp2, Melanoma; comparison drug", "experimental": "(§2) The compound of Formula II was evaluated in a number of xenografts using cell lines derived from cervical, endometrial, lung and colon carcinomas, leukaemia and melanoma (Table 3). These studies indicate that the compound according to the present invention has significant activity in xenografts."}, "NZM3": {"system": "NZM3", "assay": "Human tumour xenograft", "type": "in vivo", "settings": "NZM3, Melanoma; comparison drug", "experimental": "as §2"}, "NZC1": {"system": "NZC1", "assay": "Human tumour xenograft", "type": "in vivo", "settings": "NZC1, Cervix; comparison drug", "experimental": "as §2"}, "NZM10": {"system": "NZM10", "assay": "Human tumour xenograft", "type": "in vivo", "settings": "NZM10, Melanoma; comparison drug", "experimental": "as §2"}, "NZM4": {"system": "NZM4", "assay": "Human tumour xenograft", "type": "in vivo", "settings": "NZM4, Melanoma; comparison drug", "experimental": "as §2"}, "Jurkat": {"system": "Jurkat", "assay": "In vitro cell proliferation assay, continuous drug exposure", "type": "cell-based", "settings": "Homo sapiens, continuous drug exposure 3-5 days", "excerpt": "(§3) The results with the JLA and JLD lines, which have reduced topoisomerase II content as compared to the parental Jurkat line, indicate that the IC50 value of the compound is increased with decreased topoisomerase content. This is also the case for etoposide, amsacrine, DACA and doxorubicin."}, "HCT116p53−": {"system": "HCT116p53−", "assay": "In vitro cell proliferation assay, continuous drug exposure", "type": "cell-based", "settings": "Homo sapiens, continuous drug exposure 3-5 days", "excerpt": "as §3"}, "JLA": {"system": "JLA", "assay": "In vitro cell proliferation assay, continuous drug exposure", "type": "cell-based", "settings": "Homo sapiens; JLA (reduced topoisomerase II), continuous drug exposure 3-5 days", "excerpt": "as §3"}, "JLD": {"system": "JLD", "assay": "In vitro cell proliferation assay, continuous drug exposure", "type": "cell-based", "settings": "Homo sapiens; JLD (reduced topoisomerase II), continuous drug exposure 3-5 days", "excerpt": "as §3"}, "HCT116p53+": {"system": "HCT116p53+", "assay": "In vitro cell proliferation assay, continuous drug exposure", "type": "cell-based", "settings": "Homo sapiens, continuous drug exposure 3-5 days", "excerpt": "as §3"}, "[2]": {"settings": "data taken from the literature; cited from earlier work"}, "[3]": {"system": "p53, p21 and Fas in HCT116 (TP53 wild type)", "assay": "Induction of the p53 pathway, western blotting", "type": "cell-based, human", "excerpt": "The p53 protein is thought to play a major role in the induction of apoptosis in tumour cells (Levine A J. p53, the cellular gatekeeper for growth and division. Cell. 1997. 88(3):323-331). The p53 protein is a transcriptional activator, which acts in response to DNA damage and other stress pathways, and increases expression of proteins such as Fas and p21^WAF1. […] Products were detected by western blotting."}, "Jurkat LA": {"system": "Jurkat LA", "assay": "Human tumour xenograft", "type": "in vivo", "settings": "Leukaemia, comparison drug", "experimental": "as §2"}, "NZEN1": {"system": "NZEN1", "assay": "Human tumour xenograft", "type": "in vivo", "settings": "NZEN1, Endometrium; comparison drug", "experimental": "as §2"}}, "data": [{"smiles": "COc1cc([C@@H]2c3cc4c(cc3[C@@H](O[C@@H]3O[C@@H]5CO[C@@H](C)O[C@H]5[C@H](O)[C@H]3O)[C@H]3COC(=O)[C@H]23)OCO4)cc(OC)c1O", "note": "[Etoposide]", "values": [{"measurement": "survivin expression", "setting": "[1]", "value": "only small effects"}, {"measurement": "IC50", "setting": "AuxB1", "value": 1190, "unit": "nM"}, {"measurement": "IC50", "setting": "CHrC5", "value": 8600, "unit": "nM"}, {"measurement": "Resistance factor", "setting": "CHrC5", "value": 7.2}, {"measurement": "Comparison", "setting": "NZMp2", "value": "active"}, {"measurement": "Comparison", "setting": "NZM3", "value": "active"}, {"measurement": "Comparison", "setting": "NZC1", "value": "active"}, {"measurement": "Comparison", "setting": "NZM10", "value": "active"}, {"measurement": "Comparison", "setting": "NZM4", "value": "active"}, {"measurement": "IC50", "setting": "Jurkat", "value": 160, "unit": "nM"}, {"measurement": "IC50", "setting": "HCT116p53−", "value": 390, "unit": "nM"}, {"measurement": "IC50", "setting": "JLA", "value": 2080, "unit": "nM"}, {"measurement": "IC50", "setting": "JLD", "value": 14400, "unit": "nM"}, {"measurement": "IC50", "setting": "HCT116p53+", "value": 210, "unit": "nM"}]}, {"smiles": "CN(C)CCNC(=O)c1cccc2cc3ccccc3nc12.Cl.Cl", "note": "[DACA, N-[2-(dimethylamino)ethyl]acridine-4-carboxamide dihydrochloride]", "values": [{"measurement": "IC50", "setting": "AuxB1", "value": 125, "unit": "nM"}, {"measurement": "IC50", "setting": "CHrC5", "value": 216, "unit": "nM"}, {"measurement": "Resistance factor", "setting": "CHrC5", "value": 1.6}, {"measurement": "accumulation in tumour tissue versus liver tissue and plasma", "setting": "[2]", "value": "relatively evenly spread throughout each tissue and plasma"}, {"measurement": "IC50", "setting": "Jurkat", "value": 580, "unit": "nM"}, {"measurement": "IC50", "setting": "HCT116p53−", "value": 510, "unit": "nM"}, {"measurement": "IC50", "setting": "JLA", "value": 1100, "unit": "nM"}, {"measurement": "IC50", "setting": "JLD", "value": 2500, "unit": "nM"}, {"measurement": "IC50", "setting": "HCT116p53+", "value": 360, "unit": "nM"}]}, {"smiles": "COc1cccc2c1C(=O)c1c(O)c3c(c(O)c1C2=O)C[C@@](O)(C(=O)CO)C[C@@H]3O[C@H]1C[C@H](N)[C@H](O)[C@H](C)O1", "note": "[Doxorubicin]", "values": [{"measurement": "induction of p53, p21 and Fas", "setting": "[3]; 24 hours at higher cell density (approaching confluence)", "value": "did not"}, {"measurement": "induction of p53, p21 and Fas", "setting": "[3]; 24 hours exposure", "value": "induced p53, p21 and Fas in dose-dependent fashions"}, {"measurement": "induction of p53, p21 and Fas", "setting": "[3]; earlier times (4-10 hours)", "value": "did not"}, {"measurement": "survivin expression", "setting": "[1]", "value": "only small effects"}, {"measurement": "IC50", "setting": "AuxB1", "value": 53, "unit": "nM"}, {"measurement": "IC50", "setting": "CHrC5", "value": 6100, "unit": "nM"}, {"measurement": "Resistance factor", "setting": "CHrC5", "value": 114}, {"measurement": "Comparison", "setting": "Jurkat LA", "value": "inactive"}, {"measurement": "Comparison", "setting": "NZEN1", "value": "inactive"}, {"measurement": "IC50", "setting": "Jurkat", "value": 9.6, "unit": "nM"}, {"measurement": "IC50", "setting": "HCT116p53−", "value": 21, "unit": "nM"}, {"measurement": "IC50", "setting": "JLA", "value": 42, "unit": "nM"}, {"measurement": "IC50", "setting": "JLD", "value": 270, "unit": "nM"}, {"measurement": "IC50", "setting": "HCT116p53+", "value": 10.5, "unit": "nM"}]}, {"smiles": "COc1cc(NS(C)(=O)=O)ccc1Nc1c2ccccc2nc2ccccc12", "note": "[Amsacrine]", "values": [{"measurement": "IC50", "setting": "AuxB1", "value": 19, "unit": "nM"}, {"measurement": "IC50", "setting": "CHrC5", "value": 110, "unit": "nM"}, {"measurement": "Resistance factor", "setting": "CHrC5", "value": 5.6}, {"measurement": "accumulation in tumour tissue versus liver tissue and plasma", "setting": "[2]", "value": "accumulate more in the liver tissue than tumour tissue"}, {"measurement": "IC50", "setting": "Jurkat", "value": 37, "unit": "nM"}, {"measurement": "IC50", "setting": "HCT116p53−", "value": 52, "unit": "nM"}, {"measurement": "IC50", "setting": "JLA", "value": 3100, "unit": "nM"}, {"measurement": "IC50", "setting": "JLD", "value": 2700, "unit": "nM"}, {"measurement": "IC50", "setting": "HCT116p53+", "value": 25, "unit": "nM"}]}, {"smiles": "CNC(=O)c1cccc2c(Nc3ccc(NS(C)(=O)=O)cc3OC)c3cccc(C)c3nc12", "note": "[asulacrine, 9-((2-methoxy-4-[(methylsulfonyl)-amino]phenyl)amino)-N,5-dimethyl-4-acridinecarboxamide]", "values": [{"measurement": "accumulation in tumour tissue versus liver tissue and plasma", "setting": "[2]", "value": "accumulate more in the liver tissue than tumour tissue"}]}]}
